Reference: paper PMC11762167, “G Protein-Coupled Receptor 17 Inhibits Glucagon-like Peptide-1 Secretion via a Gi/o-Dependent Mechanism in Enteroendocrine Cells” (Biomolecules, 2024)

Columns and labels:
Assay type in all cases: cell-based
mGPR17 [1] = molecular target: T1, mGPR17 (Mus musculus, UniProt Q6NS65); assay: GLP-1 secretion from GLUTag cells expressing mGPR17; design: host or cells: GLUTag cells, adenoviral transduction; details: 100 µM MDL29,951, GLUTag mGPR17
Experimental: (§1) GLUTag cells were maintained in Dulbecco’s Modified Eagle Medium (DMEM) supplemented with 10% fetal bovine serum and 1% penicillin–streptomycin in a humidified incubator at 37 °C and 5% CO2. For adenovirus transduction, GLUTag cells were seeded into poly-D-lysine coated 96-well plates or 4-chamber slides. The next day, cells were transduced with adenoviruses (100–1250 viral particles per cell at time of seeding) as indicated. After 24–30 h, adenovirus-containing media was changed to serum-free growth media for overnight serum starvation. The following day, GLUTag cells were used for cAMP or calcium signaling assays, GLP-1 secretion assays, or immunostaining and imaging.
GLUTag cells were seeded into poly-D-lysine-coated 96-well plates and transduced with adenovirus as specified above and then tested for GLP-1 secretion. Medium was removed and cells were washed two times with GLP-1 secretion buffer (138 mM NaCl, 4.5 mM KCl, 4.2 mM NaHCO3, 2.5 mM CaCl2, 1.2 mM MgCl2, 10 mM HEPES, 1 mM glucose, and 0.1% bovine serum albumin, pH 7.4). […] Plates were then centrifuged at 300× g for 1 min at 4 °C, and 75 µL of the supernatant was removed and frozen at −80 °C until subsequent GLP-1 quantification. Total GLP-1 was quantified using the Meso Scale Discovery Total GLP-1 V-PLEX kit (Rockville, MD, USA; K1503PD) according to manufacturer’s instructions. […]

HEK293 cells = assay: GloSensor cAMP in HEK293 cells transfected with empty vector (EV); details: 100 μM MDL29,951, 3 µM forskolin
Experimental: (§2) HEK293 cells were maintained and transfected as previously described.
(§3) Live-cell, real-time cAMP measurements were performed using Promega (Madison, WI, USA) GloSensor cAMP luminescent biosensor technology. Glosensor cAMP experiments were conducted as previously described in GLUTag cells and HEK293 cells.

mGPR17 [2] = molecular target: T1, mGPR17; assay: Calcium mobilization in HEK293 cells transfected with mGPR17
Experimental: as §2
(§4) Calcium flux in HEK293 cells was measured as previously described.

mGPR17 [3] = molecular target: T1, mGPR17; assay: Calcium flux in GLUTag cells expressing mGPR17; design: host or cells: GLUTag cells, adenoviral transduction; details: for Mean Diff. (Tukey's multiple comparisons test, Figure 4C): mGPR17
Experimental: as §1
(§5) GLUTag cells were seeded into black, clear bottom, poly-D-lysine-coated 96-well plates. Cells were transduced and serum starved as specified above. Growth medium was then replaced with 100 μL/well assay buffer (HBSS, 20 mM HEPES, pH 7.4) and 100 μL/well Calcium 6 loading dye (R8190; Molecular Devices, San Jose, CA, USA). During dye loading, cells were incubated at 37 °C and 5% CO2 for 2 h. MDL29,951 or KCl was added to the wells and fluorescence (485 nm excitation, 525 nm emission, and 515 nm automatic emission cutoff) was measured using a Molecular Devices FlexStation3 (Molecular Devices) at 37 °C. For experiments with PTX, cells were pretreated with 100 ng/mL PTX overnight and 100 ng/mL PTX was included with Calcium 6 loading dye for calcium flux assays. For experiments with YM-254890, cells were pretreated for 30 min at 37 °C.

hGPR17S [4] = molecular target: T2, hGPR17S (Homo sapiens, UniProt Q13304); assay: Calcium mobilization in HEK293 cells transfected with hGPR17S
T2 construct: host or cells: HEK293 cells (ATCC CRL-1573), transient transfection
T2 sequence (Q13304 29-367): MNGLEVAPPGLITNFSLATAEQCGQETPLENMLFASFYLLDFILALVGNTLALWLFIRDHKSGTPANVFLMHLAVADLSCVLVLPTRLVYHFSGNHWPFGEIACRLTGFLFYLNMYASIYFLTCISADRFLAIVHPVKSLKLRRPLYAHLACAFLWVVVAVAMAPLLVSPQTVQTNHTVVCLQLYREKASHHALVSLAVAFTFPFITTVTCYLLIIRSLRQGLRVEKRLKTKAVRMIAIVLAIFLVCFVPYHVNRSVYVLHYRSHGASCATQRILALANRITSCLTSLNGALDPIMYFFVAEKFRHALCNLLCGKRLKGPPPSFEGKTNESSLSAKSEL
Experimental: as §2, §4

hGPR17L-V96M = molecular target: T3, hGPR17L-V96M (Homo sapiens, UniProt Q13304, V96M); assay: Calcium flux in GLUTag cells expressing hGPR17L-V96M; details: for Mean Diff. (Tukey's multiple comparisons test, Figure 4C): hGPR17L-V96M
T3 construct: host or cells: GLUTag cells, adenoviral transduction
T3 sequence (Q13304 whole entry V96M): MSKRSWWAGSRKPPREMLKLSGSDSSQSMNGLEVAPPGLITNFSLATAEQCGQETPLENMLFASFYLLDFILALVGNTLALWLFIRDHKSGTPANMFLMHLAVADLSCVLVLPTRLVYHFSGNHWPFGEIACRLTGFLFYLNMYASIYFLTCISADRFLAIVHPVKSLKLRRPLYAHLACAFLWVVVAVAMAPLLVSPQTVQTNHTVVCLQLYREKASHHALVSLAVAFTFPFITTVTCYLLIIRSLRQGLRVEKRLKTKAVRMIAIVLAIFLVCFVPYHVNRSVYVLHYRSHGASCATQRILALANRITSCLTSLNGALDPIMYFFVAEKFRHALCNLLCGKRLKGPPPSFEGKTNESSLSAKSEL
Experimental: as §1, §5

hGPR17S [5] = molecular target: T2, hGPR17S; assay: GloSensor cAMP in HEK293 cells transfected with hGPR17S
Experimental: as §2, §3

mGPR17 [6] = molecular target: T1, mGPR17; assay: GloSensor cAMP in HEK293 cells transfected with mGPR17; design: host or cells: GLUTag cells, adenoviral transduction
Experimental: as §2, §3

[7] = HEK293 mGPR17 versus hGPR17L and hGPR17S
[8] = log [MDL29,951] (M) -4.5 vs. Vehicle
[9] = log [MDL29,951] (M) -5.0 vs. Vehicle
[10] = log [MDL29,951] (M) -5.5 vs. Vehicle
[11] = log [MDL29,951] (M) -6.0 vs. Vehicle
[12] = log [MDL29,951] (M) -6.4 vs. Vehicle
[13] = log [MDL29,951] (M) -6.9 vs. Vehicle
[14] = log [MDL29,951] (M) -7.4 vs. Vehicle
[15] = log [MDL29,951] (M) -7.9 vs. Vehicle
[16] = log [MDL29,951] (M) -8.3 vs. Vehicle
[17] = log [MDL29,951] (M) -8.8 vs. Vehicle
[18] = 3 µM forskolin, read-out: cAMP Potency EC50 (reversal of inhibition)
[19] = 3 µM forskolin-stimulated GloSensor cAMP, read-out: cAMP Potency IC50
[20] = 100 μM MDL29,951, 3 µM forskolin

T1 sequence (Q6NS65 whole entry): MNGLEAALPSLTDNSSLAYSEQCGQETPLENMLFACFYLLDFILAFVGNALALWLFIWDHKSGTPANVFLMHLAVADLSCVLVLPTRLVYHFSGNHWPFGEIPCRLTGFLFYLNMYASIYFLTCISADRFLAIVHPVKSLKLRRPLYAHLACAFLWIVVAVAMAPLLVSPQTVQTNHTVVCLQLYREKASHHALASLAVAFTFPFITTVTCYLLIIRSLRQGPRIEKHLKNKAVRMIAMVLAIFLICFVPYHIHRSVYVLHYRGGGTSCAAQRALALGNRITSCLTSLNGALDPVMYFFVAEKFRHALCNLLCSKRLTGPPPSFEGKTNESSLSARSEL

In the case of `O=C(O)CCc1c(C(=O)O)[nH]c2cc(Cl)cc(Cl)c12` [MDL29,951], the “effect on F/I-stimulated GLP-1 secretion” value (mGPR17 [1]) is reported as “significantly inhibited”, the “cAMP Effect of 100 μM MDL (% Inhibition)” value (HEK293 cells) is reported as 7.5±3.2% and the “Calcium Emax (Mean Peak ΔF/F)” value (mGPR17 [2]; HEK293 mGPR17) is reported as 0.70±0.09. For the same molecule, the “Calcium Potency (pEC50)” value (mGPR17 [2]; HEK293 mGPR17) was 6.31±0.05, the EC50 (mGPR17 [2]; HEK293 mGPR17, read-out: Calcium Potency EC50) was 490 nM and the “calcium response potency, fold less potent than human GPR17 isoforms” value (mGPR17 [2]; [7]) was “approximately 10 fold”. The “reduction in calcium efficacy as compared to human GPR17 isoforms” value (mGPR17 [2]; [7]) was greater than 60%, the “maximal calcium stimulation, % of the hGPR17L-WT response” value (mGPR17 [3]; GLUTag mGPR17) was 74 ± 2.7% and the “pEC50, calcium responses” value (mGPR17 [3]; GLUTag mGPR17) was 6.17 ± 0.04. For the same molecule, the EC50 (mGPR17 [3]; GLUTag mGPR17, read-out: EC50, calcium responses) was 680 nM, the “Mean Diff. (Tukey's multiple comparisons test, Figure 4C)” value (mGPR17 [3]; [8]) was 72.98 and the “Mean Diff. (Tukey's multiple comparisons test, Figure 4C)” value (mGPR17 [3]; [9]) was 62.99. The “Mean Diff. (Tukey's multiple comparisons test, Figure 4C)” value (mGPR17 [3]; [10]) was 54.24, the “Mean Diff. (Tukey's multiple comparisons test, Figure 4C)” value (mGPR17 [3]; [11]) was 47.28 and the “Mean Diff. (Tukey's multiple comparisons test, Figure 4C)” value (mGPR17 [3]; [12]) was 29.04. The “Mean Diff. (Tukey's multiple comparisons test, Figure 4C)” value (mGPR17 [3]; [13]) was 21.01, the “Mean Diff. (Tukey's multiple comparisons test, Figure 4C)” value (mGPR17 [3]; [14]) was 6.844 and the “Mean Diff. (Tukey's multiple comparisons test, Figure 4C)” value (mGPR17 [3]; [15]) was -0.1174. For the same molecule, the “Mean Diff. (Tukey's multiple comparisons test, Figure 4C)” value (mGPR17 [3]; [16]) was -1.354, the “Mean Diff. (Tukey's multiple comparisons test, Figure 4C)” value (mGPR17 [3]; [17]) was -0.5799 and the “Calcium Emax (Mean Peak ΔF/F)” value (hGPR17S [4]) was 1.84±0.11. The “Calcium Potency (pEC50)” value (hGPR17S [4]) was 7.37±0.10, the EC50 (hGPR17S [4]; read-out: Calcium Potency EC50) was 43 nM and the “maximal calcium stimulation, % of that observed for hGPR17L-WT” value (hGPR17L-V96M; GLUTag hGPR17L-V96M) was 27 ± 1.5%. The “pEC50, calcium mobilization” value (hGPR17L-V96M; GLUTag hGPR17L-V96M) was 6.24 ± 0.07, the EC50 (hGPR17L-V96M; GLUTag hGPR17L-V96M, read-out: EC50, calcium mobilization) was 580 nM and the “Mean Diff. (Tukey's multiple comparisons test, Figure 4C)” value (hGPR17L-V96M; [8]) was 27.53. The “Mean Diff. (Tukey's multiple comparisons test, Figure 4C)” value (hGPR17L-V96M; [9]) was 24.23, the “Mean Diff. (Tukey's multiple comparisons test, Figure 4C)” value (hGPR17L-V96M; [10]) was 21.87 and the “Mean Diff. (Tukey's multiple comparisons test, Figure 4C)” value (hGPR17L-V96M; [11]) was 17.65. For the same molecule, the “Mean Diff. (Tukey's multiple comparisons test, Figure 4C)” value (hGPR17L-V96M; [12]) was 11.95, the “Mean Diff. (Tukey's multiple comparisons test, Figure 4C)” value (hGPR17L-V96M; [13]) was 4.328 and the “Mean Diff. (Tukey's multiple comparisons test, Figure 4C)” value (hGPR17L-V96M; [14]) was 1.581. For the same molecule, the “Mean Diff. (Tukey's multiple comparisons test, Figure 4C)” value (hGPR17L-V96M; [15]) was 0.8859, the “Mean Diff. (Tukey's multiple comparisons test, Figure 4C)” value (hGPR17L-V96M; [16]) was 0.4181 and the “Mean Diff. (Tukey's multiple comparisons test, Figure 4C)” value (hGPR17L-V96M; [17]) was -0.03776. For the same molecule, the “cAMP Maximum Inhibition (% Inhibition)” value (hGPR17S [5]; 3 µM forskolin) was 48±2.2%, the “cAMP Potency (pEC50) (reversal of inhibition)” value (hGPR17S [5]; 3 µM forskolin) was 5.45±0.07 and the “cAMP Potency (pIC50)” value (hGPR17S [5]; 3 µM forskolin) was 8.83±0.09. For the same molecule, the EC50 (hGPR17S [5]; [18]) was 3600 nM, the IC50 (hGPR17S [5]; [19]) was 1.5 nM and the “cAMP Effect of 100 μM MDL (% Inhibition)” value (hGPR17S [5]; [20]) was 13±3.7%. The “cAMP Maximum Inhibition (% Inhibition)” value (mGPR17 [6]; 3 µM forskolin) was 61±3.4%, the “cAMP Potency (pEC50) (reversal of inhibition)” value (mGPR17 [6]; 3 µM forskolin) was 4.74±0.23 and the “cAMP Potency (pIC50)” value (mGPR17 [6]; 3 µM forskolin) was 8.48±0.20. The EC50 (mGPR17 [6]; [18]) was 18000 nM, the IC50 (mGPR17 [6]; [19]) was 3.3 nM and the “cAMP Effect of 100 μM MDL (% Inhibition)” value (mGPR17 [6]; [20]) was 45±6.3%.
